Measured values published in US20260274814A1, “THIENYL COMPOUNDS FOR THE TREATMENT OF A CENTRAL NERVOUS SYSTEM DISEASE OR DISORDER” (Coreterra Therapeutics, Inc., priority 2023, published 2026).
Where a name gives a salt, the structure may show the parent alone.

Tested on: mice
Assay: Neuropharmacological Assay (SmartCube): automated behavioral signature of compound-treated mice compared with a database of reference drug classes
Assay type: in vivo
Settings: for minimal effective dose: Mus musculus, ip, minimal effective dose: dose having 45% or more total activity in SmartCube, i.p., if only one dose tested, that dose is shown, read-out: MED; for AD / AG / AN / AP / AX / CE / HL / MS / PS / SH / UK: SmartCube class probability, 3.0 mg/kg i.p., 15 min before test
Summary of the method: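 Mice dosed i.p. 15 min before SmartCube testing, with compound in N-methyl-2-pyrrolidone/polyethylene glycol/propylene glycol. Video-captured behaviour is compared with a reference-drug signature database to give per-class probabilities, reported at 3.0 mg/kg. MED, from doses usually 0.3–10 mg/kg, is the lowest dose giving ≥45% total activity.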

CNC1(C)CCc2csc(C(F)(F)F)c2C1 (centres unmarked) [Compound 141, N, 5-dimethyl-3-(trifluoromethyl)-6,7-dihydro-4H-2-benzothiophen-5-amine hydrochloride]
minimal effective dose: 3 mg/kg | AD: + (≥4%) | AG: ND (^ <4%) | AN: ND (^ <4%) | AP: ND (^ <4%) | AX: +++ (≥49%) | CE: ND (^ <4%) | HL: ND (^ <4%) | MS: ND (^ <4%) | PS: ND (^ <4%) | SH: ND (^ <4%) | UK: ND (^ <4%)

CNC1CCc2sc(F)c(C)c2C1 (centres unmarked) [Compound 142, 2-fluoro-N, 3-dimethyl-4,5,6,7-tetrahydrobenzothiophen-5-amine hydrochloride]
minimal effective dose: 1 mg/kg | AD: + (≥4%) | AG: ND (^ <4%) | AN: ++ (≥24%) | AP: + (≥4%) | AX: ND (^ <4%) | CE: ND (^ <4%) | HL: ND (^ <4%) | MS: ND (^ <4%) | PS: + (≥4%) | SH: ND (^ <4%) | UK: + (≥4%)

CNC1COc2csc(C(F)(F)F)c2C1 (centres unmarked) [Compound 153, N-methyl-5-(trifluoromethyl)-3,4-dihydro-2H-thieno[3,4-b]pyran-3-amine hydrochloride]
minimal effective dose: 3 mg/kg | AD: ++++ (≥74%) | AG: ND (^ <4%) | AN: ND (^ <4%) | AP: ND (^ <4%) | AX: ND (^ <4%) | CE: ND (^ <4%) | HL: ND (^ <4%) | MS: ND (^ <4%) | PS: ND (^ <4%) | SH: ND (^ <4%) | UK: ND (^ <4%)

CNC1CC=Cc2cscc2C1 (centres unmarked) [Compound 168, N-methyl-5,6-dihydro-4H-cyclohepta[c]thiophen-5-amine hydrochloride]
minimal effective dose: 3 mg/kg | AD: ND (^ <4%) | AG: ND (^ <4%) | AN: ND (^ <4%) | AP: +++ (≥49%) | AX: ND (^ <4%) | CE: ND (^ <4%) | HL: ND (^ <4%) | MS: ND (^ <4%) | PS: ND (^ <4%) | SH: ND (^ <4%) | UK: ND (^ <4%)

CNC1CCc2sc(C(F)(F)F)cc2C1 (centres unmarked) [Compound 173, N-methyl-2-(trifluoromethyl)-4,5,6,7-tetrahydrobenzothiophen-5-amine hydrochloride]
minimal effective dose: > 3 mg/kg | AD: ND (^ <4%) | AG: ND (^ <4%) | AN: ND (^ <4%) | AP: ND (^ <4%) | AX: ND (^ <4%) | CE: ND (^ <4%) | HL: ND (^ <4%) | MS: ND (^ <4%) | PS: ND (^ <4%) | SH: ND (^ <4%) | UK: ++ (≥24%)

CNC1CCc2c(C(F)(F)F)csc2C1 (centres unmarked) [Compound 180, N-methyl-3-(trifluoromethyl)-4,5,6,7-tetrahydrobenzothiophen-6-amine hydrochloride]
minimal effective dose: 3 mg/kg | AD: ND (^ <4%) | AG: ND (^ <4%) | AN: ND (^ <4%) | AP: +++ (≥49%) | AX: ND (^ <4%) | CE: ND (^ <4%) | HL: ND (^ <4%) | MS: ND (^ <4%) | PS: ND (^ <4%) | SH: ND (^ <4%) | UK: ND (^ <4%)

CNC1COc2cc(C)sc2C1 (centres unmarked) [Compound 181, N, 2-dimethyl-6,7-dihydro-5H-thieno[3,2-b]pyran-6-amine hydrochloride]
minimal effective dose: > 3 mg/kg | AD: ND (^ <4%) | AG: ND (^ <4%) | AN: + (≥4%) | AP: + (≥4%) | AX: ND (^ <4%) | CE: ND (^ <4%) | HL: ND (^ <4%) | MS: ND (^ <4%) | PS: ND (^ <4%) | SH: ND (^ <4%) | UK: ND (^ <4%)

CNC1(C)CCc2scc(F)c2C1 (centres unmarked) [Compound 182, 3-fluoro-N, 5-dimethyl-6,7-dihydro-4H-benzothiophen-5-amine hydrochloride]
minimal effective dose: 3 mg/kg | AD: ND (^ <4%) | AG: ND (^ <4%) | AN: ND (^ <4%) | AP: ND (^ <4%) | AX: ND (^ <4%) | CE: ND (^ <4%) | HL: ND (^ <4%) | MS: ND (^ <4%) | PS: + (≥4%) | SH: + (≥4%) | UK: ++ (≥24%)

Cc1cc2c(s1)CCC(N)C2 (centres unmarked) [Compound 185, 2-methyl-4,5,6,7-tetrahydrobenzothiophen-5-amine hydrochloride]
AD: ND (^ <4%) | AG: ND (^ <4%) | AN: ND (^ <4%) | AP: ND (^ <4%) | AX: ND (^ <4%) | CE: ND (^ <4%) | HL: ND (^ <4%) | MS: ND (^ <4%) | PS: ND (^ <4%) | SH: ND (^ <4%) | UK: ++ (≥24%)

NC1CCc2scc(C(F)(F)F)c2C1 (centres unmarked) [Compound 186, 3-(trifluoromethyl)-4,5,6,7-tetrahydrobenzothiophen-5-amine hydrochloride]
minimal effective dose: > 3 mg/kg | AD: ND (^ <4%) | AG: ND (^ <4%) | AN: ND (^ <4%) | AP: ND (^ <4%) | AX: ND (^ <4%) | CE: ND (^ <4%) | HL: ND (^ <4%) | MS: ND (^ <4%) | PS: ND (^ <4%) | SH: ND (^ <4%) | UK: + (≥4%)

NC1CCc2scc(Cl)c2C1 (centres unmarked) [Compound 187, 3-chloro-4,5,6,7-tetrahydrobenzothiophen-5-amine hydrochloride]
minimal effective dose: 3 mg/kg | AD: ND (^ <4%) | AG: ND (^ <4%) | AN: ND (^ <4%) | AP: ++ (≥24%) | AX: ND (^ <4%) | CE: ND (^ <4%) | HL: ND (^ <4%) | MS: ND (^ <4%) | PS: ND (^ <4%) | SH: ND (^ <4%) | UK: ++ (≥24%)

Cc1cc2c(s1)CC(N)CO2 (centres unmarked) [Compound 188, 2-methyl-6,7-dihydro-5H-thieno[3,2-b]pyran-6-amine hydrochloride]
minimal effective dose: > 3 mg/kg | AD: ND (^ <4%) | AG: ND (^ <4%) | AN: ND (^ <4%) | AP: ND (^ <4%) | AX: + (≥4%) | CE: ND (^ <4%) | HL: ND (^ <4%) | MS: ND (^ <4%) | PS: ND (^ <4%) | SH: ND (^ <4%) | UK: ++ (≥24%)

CN(C)C1CCc2sc(Cl)cc2C1 (centres unmarked) [Compound 189, 2-chloro-N, N-dimethyl-4,5,6,7-tetrahydrobenzothiophen-5-amine hydrochloride]
minimal effective dose: > 3 mg/kg | AD: ND (^ <4%) | AG: ND (^ <4%) | AN: ND (^ <4%) | AP: ND (^ <4%) | AX: ND (^ <4%) | CE: ND (^ <4%) | HL: ND (^ <4%) | MS: ND (^ <4%) | PS: ND (^ <4%) | SH: ND (^ <4%) | UK: ++ (≥24%)

CNC1(C)CCc2scc(C(F)(F)F)c2C1 (centres unmarked) [Compound 190, N, 5-dimethyl-3-(trifluoromethyl)-6,7-dihydro-4H-benzothiophen-5-amine hydrochloride]
minimal effective dose: > 3 mg/kg | AD: ND (^ <4%) | AG: ND (^ <4%) | AN: ND (^ <4%) | AP: ND (^ <4%) | AX: ND (^ <4%) | CE: ND (^ <4%) | HL: ND (^ <4%) | MS: ND (^ <4%) | PS: ND (^ <4%) | SH: ND (^ <4%) | UK: + (≥4%)

NC1CCc2csc(C3CC3)c2C1 (centres unmarked) [Compound 193, 3-cyclopropyl-4,5,6,7-tetrahydro-2-benzothiophen-5-amine hydrochloride]
minimal effective dose: > 3 mg/kg | AD: ND (^ <4%) | AG: ND (^ <4%) | AN: + (≥4%) | AP: ND (^ <4%) | AX: ND (^ <4%) | CE: ND (^ <4%) | HL: ND (^ <4%) | MS: ND (^ <4%) | PS: ND (^ <4%) | SH: ND (^ <4%) | UK: ND (^ <4%)

CNC1CCc2sc(C)c(F)c2C1 (centres unmarked) [Compound 196, 3-fluoro-N, 2-dimethyl-4,5,6,7-tetrahydrobenzothiophen-5-amine hydrochloride]
minimal effective dose: 3 mg/kg | AD: ND (^ <4%) | AG: ND (^ <4%) | AN: ND (^ <4%) | AP: ND (^ <4%) | AX: ND (^ <4%) | CE: ND (^ <4%) | HL: ND (^ <4%) | MS: ND (^ <4%) | PS: ND (^ <4%) | SH: ND (^ <4%) | UK: + (≥4%)

CNC1CCc2sc(C)cc2C1 (centres unmarked) [Compound 197, N, 2-dimethyl-4,5,6,7-tetrahydrobenzothiophen-5-amine hydrochloride]
minimal effective dose: 3 mg/kg | AD: ND (^ <4%) | AG: ND (^ <4%) | AN: ND (^ <4%) | AP: ND (^ <4%) | AX: ND (^ <4%) | CE: ND (^ <4%) | HL: ND (^ <4%) | MS: ND (^ <4%) | PS: ND (^ <4%) | SH: ND (^ <4%) | UK: +++ (≥49%)

Cc1scc2c1CCC(C)(N)C2 (centres unmarked) [Compound 200, 1,5-dimethyl-6,7-dihydro-4H-2-benzothiophen-5-amine hydrochloride]
minimal effective dose: 3 mg/kg | AD: ND (^ <4%) | AG: ND (^ <4%) | AN: ++ (≥24%) | AP: ND (^ <4%) | AX: ND (^ <4%) | CE: ND (^ <4%) | HL: + (≥4%) | MS: ND (^ <4%) | PS: ++ (≥24%) | SH: ND (^ <4%) | UK: ND (^ <4%)
